Assays:
wt JAK2 = wt JAK2 (Mus musculus (Mouse), UniProt Q62120); test: JAK2 protein level by western blotting in Ba/F3-EPOR-JAK2 wt cells; type: cell-based
Method: Immunoblotting and Immunoprecipitation. Protein lysate preparation, immunoblotting, and immunoprecipitation were carried out as previously described (Lamberto, et al., 2017 Cell Chem Biol., 224(12):1490-500 e11). Briefly, 0.7×10^6 cells were treated with compounds 1 and 2 at 0, 5, 10, and 20 μM for 16 or 24 hours, cells were collected, and lysate was prepared in radioimmunoprecipitation assay (RIPA) buffer, JAK family and downstream signaling protein levels were detected by western blotting with the indicated antibodies. For immunoprecipitation, 1 mg protein for each sample was prepared and 1 μg antibody was used, immunoglobulin G (IgG) was added in same amount as nontargeting control.

HEL cells = test: HEL cell growth inhibition by fresh or aged drug stocks (stability); type: cell-based, human; settings: stocks stored two to three years at −20° Celsius; 2.5, 5, 10, 20 μM, 24 hours
Method: Fresh or aged stocks of compounds 1 and 2 were tested for the ability to inhibit HEL cell growth at 2.5, 5, 10, and 20 μM of each drug after 24 hours (FIG. 19A-FIG. 19B).
The CellTiter Glo® assay was performed using HEL cells seeded at 1000 cells/well of a 96-well plate. The “fresh” drug stocks were obtained frozen (stored at −20° Celsius) within days of executing the proliferation experiment for which results are shown. The “aged” drug stocks were obtained from freeze-thawed stocks serially diluted and stored at −20° Celsius in the laboratory. The “aged” stocks were stored between at least two years to three years at −20° Celsius with little to no freeze-thaw cycles prior to execution of the proliferation experiment for which results are shown. “Aged” stocks may be stored for several years (e.g., at least one year, at least two years, at least three years, at least four years or more) at −20° Celsius prior to use.

MCL-1 = MCL-1 (Homo sapiens (Human), UniProt Q07820); test: MCL-1 expression in HEL cells by western blotting; type: cell-based; settings: 10-20 μM
Method: (§1) With JOSD1 as the prime candidate, JOSD1 binding and inhibition was evaluated by the compounds. First, targeted engagement was confirmed by showing competition with DUB ABP in HEL-FLAG-HA-JOSD1 cells following treatment with the two agents (FIG. 4D). The structures for negative control compounds 66 and 67 are shown below. In addition, the effects of small molecule inhibition of JOSD1 was investigated on MCL-1, an established substrate of JOSD1 (Wu, et al., 2020 Cell Death Differ., 27(1):55-70). […] Other exemplary compounds that inhibit DUBs are listed below in Table 3 (See Supra, ¶ [0063] for structures)

UCHL1 = UCHL1 (Homo sapiens (Human), UniProt P09936); test: UCHL1 biochemical inhibition (ubiquitin hydrolase activity, purified enzyme)
Chain of UCHL1 (P09936 whole entry, species assumed): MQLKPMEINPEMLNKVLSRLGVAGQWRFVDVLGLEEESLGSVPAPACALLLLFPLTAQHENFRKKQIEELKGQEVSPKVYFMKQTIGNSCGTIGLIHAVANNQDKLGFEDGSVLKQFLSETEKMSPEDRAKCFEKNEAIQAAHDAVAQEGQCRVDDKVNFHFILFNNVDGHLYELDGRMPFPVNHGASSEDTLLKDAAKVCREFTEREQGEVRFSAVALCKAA

SOCS1 = SOCS1 (Homo sapiens (Human), UniProt O15524); test: SOCS1 expression in HEL cells by western blotting; type: cell-based; settings: 5 μM
Method: as §1

Cc1noc(C)c1-c1cccc2nc(NC(=O)[C@H]3CCN(C#N)C3)sc12 [Compound 2, (S)-1-cyano-N-(7-(3,5-dimethylisoxazol-4-yl)benzo[d]thiazol-2-yl)pyrrolidine-3-carboxamide]
JAK2 levels in wt cells (wt JAK2): little to no impact on JAK2 levels
stability: growth inhibition by aged stocks versus fresh stocks (HEL cells): comparable cell growth inhibition
MCL-1 expression (MCL-1): decrease
UCHL1 biochemical IC50 (range in words) (UCHL1): several hundred
SOCS1 expression (SOCS1): decrease

Source: patent US20240335427A1, “SMALL MOLECULE INHIBITION OF DEUBIQUITINATING ENZYME JOSEPHIN DOMAIN CONTAINING 1 (JOSD1) AS A TARGETED THERAPY FOR LEUKEMIAS WITH MUTANT JANUS KINASE 2 (JAK2)” (DANA-FARBER CANCER INSTITUTE, INC., priority 2021, published 2024)
